The target in one assay is T1, Human KRAS G12V (Homo sapiens, UniProt P01116, G12V).
T1 construct: purchased PerkinElmer
Description: KRAS-G12V/GTP binding assay (HTRF kit). The following applies: 25° C., 1 h. The protocol: Test Example 2: KRAS G12V Binding Assay
In this method, the inhibitory effects of the compounds on the binding of KRAS G12V to GTP were assayed by a homogeneous time-resolved fluorescence (HTRF) technique using a KRAS-G12V/GTP binding assay kit (PerkinElmer).
The experimental procedures were as follows (refer to the kit instructions for detailed test methods): the compounds of the present disclosure were each firstly dissolved in DMSO at a concentration of 20 mM, and then diluted in an equal gradient with a buffer in the kit, so that the final concentrations of the test compounds in the reaction system were in a range of 0.02-5000 nM, and the final concentration of DMSO was 0.5%. 5 μL of each compound was incubated with 5 μL of 1× Human KRAS G12V 6His-tagged (PerkinElmer), 5 µL of 1×6His Eu Cryptate Antibody (PerkinElmer), and 5 μL of 1×GTP Red reagent (PerkinElmer) in a 384-well plate (Greiner) at 25° C. for 1 h. After the incubation was completed, the fluorescence intensity of each well was measured at the excitation wavelength of 337 nm and the emission wavelengths of 620 nm and 665 nm with an EnVision microplate reader (PerkinElmer) in the HTRF mode, and Ratio values were calculated using the formula: Ratio=(665 nm/620 nm)×10^4. The inhibition rates of the compounds at each concentration were calculated by comparing the fluorescence intensity ratio with that of the control group. Then non-linear curve fittings for logarithmic concentration-inhibition rate were performed using the GraphPad Prism 8 analysis software, and the IC50 values of the compounds were obtained (Table 3).

Assay [1] addresses T2, KRAS G12D protein in A427 cells (Homo sapiens, UniProt P01116, G12D).
T2 construct: endogenous in cells; host or cells: A427
Description: KRAS degradation assay (Western Blot) in A427 cells. Type of assay: cell-based. The text has this:
Test Example 5: KRAS G12C, KRAS G12D, KRAS G12V, KRAS G13D, and KRAS WT (Expanded) Degradation Assays
The degradation effect of the compounds on KRAS was investigated on KRAS G12C mutant human non-small cell lung cancer cell NCI-H358, KRAS G12D mutant human metastatic pancreatic cancer cell AsPc-1, KRAS G12D mutant human lung cancer cell A427, KRAS G12V mutant human colorectal cancer cell SW620, KRAS G12V mutant human lung cancer cell SW900, KRAS G13D mutant human colorectal cancer epithelial cell DLD-1, and KRAS WT human gastric cancer cell MKN-1. The specific procedures were as follows: 0.95 mL of cells were seeded into each well of a 24-well cell culture plate to achieve a cell density of 5×10^5 cells/well; and the cell plate was incubated in an incubator at 37° C. with 5% CO2 overnight. Then 50 μL of the compound solution after dilution was added to each of the wells with the corresponding cells, so that the final concentration of the compound was in a range of 0.03-3000 nM. The final concentration of DMSO was 0.25%. After the compounds were added, the cell plate was incubated in an incubator at 37° C. with 5% CO2 for 24 h. The culture medium in the 24-well cell culture plate was then removed, and the plate was washed twice with 1×PBS (KeyGEN). 120 μL of RIPA (strong) lysis buffer (Beyotime) (supplemented with 1 mM phenylmethylsulfonyl fluoride, a protease inhibitor mixture (Beyotime), and a protease phosphatase inhibitor mixture (Beyotime)) was added to lyse adherent SW900 cells at the bottom of the cell culture plate. After the plate was left to stand on ice for 30 min, the protein lysate in each well was transferred to a 1.5 mL centrifuge tube and centrifuged at 15000 g for 20 min at 4° C. The cell lysate supernatants after centrifugation were cryopreserved in a refrigerator at −80° C. for later use.
After the samples of the cell lysate supernatants that had been prepared were thawed from the refrigerator at −80° C., the total protein concentrations of the cell lysates were determined using a BCA protein quantification kit (Tiangen). The total protein concentrations of the samples were then adjusted to 0.5 μg/μL with PBS and 5×SDS-PAGE protein loading buffer (Beyotime), and the samples were incubated in a water bath at 100° C. for 15 min. The samples were then incubated in an ice bath for 5 min and centrifuged at 14000 g for 1 min at 4° C., and the supernatants were mixed well as loading samples for the Western Blot assay. The samples were loaded into wells of a 10% precast gel (KeyGEN) with a loading volume of 10 μL (total protein: 5 μg), a sufficient Tris-MOPS-SDS running buffer (Adamas) was added, and then electrophoresis was performed at a constant voltage of 120 V for 55 min. After the electrophoresis, the proteins on the gel were transferred to PVDF membranes at a constant current of 250 mA for 55 min. After the membrane transfer, the PVDF membranes were incubated in 1× Quick Block blocking buffer (Beyotime)at room temperature for 30 min. After the blocking, the PVDF membranes were separately incubated at 4° C. overnight with the KRAS antibody (Abcam) diluted in a ratio of 1:1000 and the β-actin antibody (Abcam) diluted in a ratio of 1:2000 in 5% BSA as the diluent, and then washed with 1×TBST buffer (2.4 g of Tris, 8.8 g of NaCl, 1.5 mL of Tween 20, with pH adjusted to 7.4, with the volume brought to 1 L) 3 times for 10 min/time. The membranes were incubated with a secondary antibody (Abcam) diluted in 5% BSA at room temperature for 2 h, and then washed with 1×TBST buffer 3 times for 10 min/time. Finally, the membranes were incubated with Clarity Western ECL Substrate (BIO-RAD) for 5 min for luminescence and color development, and a ChemiScope 6200 Touch chemiluminescence imaging system (Clinx) was used for color development and protein mapping. Gray value analysis of the protein maps was performed using the chemiluminescence analysis software (Clinx). […]

The target of assay [2] is T3, KRAS G12V protein in SW900 cells (Homo sapiens, UniProt P01116, G12V).
T3 construct: endogenous in cells; host or cells: SW900
The assay can be described thus: KRAS degradation assay (Western Blot) in SW900 cells. Type of assay: cell-based. Conditions: 24 h. A digest of the protocol:
(§1)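 Cells seeded at 5×10^5 cells/well, incubated overnight, then treated 24 h at 37 °C with compound (final 0.03–3000 nM, 0.25% DMSO). KRAS in lysates measured by Western blot with β-actin normalisation; degradation versus vehicle control fitted to give DC50 and Dmax.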

Assay [3] deals with T4, KRAS G12C protein in NCI-H358 cells (Homo sapiens, UniProt P01116, G12C).
T4 construct: endogenous in cells; host or cells: NCI-H358
The assay can be described thus: KRAS degradation assay (Western Blot) in NCI-H358 cells. Type of assay: cell-based. The following applies: 24 h. The method, boiled down: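 DC50 and Dmax were fitted from KRAS band intensity, corrected to β-actin and expressed against untreated control, after Western blotting of 5 μg lysate protein. Cells were exposed for 24 h at 37 °C to 0.03-3000 nM compound (final) with 0.25% DMSO.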

In assay [4] the target is T5, KRAS G13D protein in DLD-1 cells (Homo sapiens, UniProt P01116, G13D).
T5 construct: endogenous in cells; host or cells: DLD-1
Description: KRAS degradation assay (Western Blot) in DLD-1 cells. Type of assay: cell-based. Conditions: 24 h. A digest of the protocol: as §1

Assay [5] concerns the target T6, KRAS G12D protein in AsPc-1 cells (Homo sapiens, UniProt P01116, G12D).
T6 construct: endogenous in cells; host or cells: AsPc-1
Description: KRAS degradation assay (Western Blot) in AsPc-1 cells. It is filed as cell-based. A digest of the protocol:
as §1

Structures are written as SMILES.

T4 sequence (P01116 1-188 isoform P01116-2 G12C): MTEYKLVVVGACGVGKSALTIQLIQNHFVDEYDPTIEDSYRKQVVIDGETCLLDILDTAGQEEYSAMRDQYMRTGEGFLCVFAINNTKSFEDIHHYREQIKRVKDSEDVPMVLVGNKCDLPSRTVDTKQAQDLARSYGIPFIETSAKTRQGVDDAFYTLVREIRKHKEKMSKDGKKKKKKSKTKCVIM
T3 sequence (P01116 1-188 isoform P01116-2 G12V): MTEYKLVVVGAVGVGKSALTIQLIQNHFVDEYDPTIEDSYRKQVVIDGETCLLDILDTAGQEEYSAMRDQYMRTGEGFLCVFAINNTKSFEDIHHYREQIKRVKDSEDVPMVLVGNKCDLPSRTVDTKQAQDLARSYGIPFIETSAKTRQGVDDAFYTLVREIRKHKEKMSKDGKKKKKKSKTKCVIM
T6 sequence (P01116 1-188 isoform P01116-2 G12D): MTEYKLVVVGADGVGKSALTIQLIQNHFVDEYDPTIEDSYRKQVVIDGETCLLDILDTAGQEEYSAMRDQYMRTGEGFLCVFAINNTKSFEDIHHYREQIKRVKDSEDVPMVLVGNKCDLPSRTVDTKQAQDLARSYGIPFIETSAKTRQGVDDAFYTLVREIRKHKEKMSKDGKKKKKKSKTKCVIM
T2 sequence (P01116 1-188 isoform P01116-2 G12D): as above
T5 sequence (P01116 1-188 isoform P01116-2 G13D): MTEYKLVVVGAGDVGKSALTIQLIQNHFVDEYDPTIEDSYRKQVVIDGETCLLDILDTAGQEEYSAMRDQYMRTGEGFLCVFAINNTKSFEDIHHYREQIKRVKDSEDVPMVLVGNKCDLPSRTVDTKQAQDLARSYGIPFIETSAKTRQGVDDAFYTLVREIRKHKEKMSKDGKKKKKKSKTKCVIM
T1 sequence (P01116 1-188 isoform P01116-2 G12V): as the sequence (P01116 1-188 isoform P01116-2 G12V) above

As for `C#Cc1c(F)ccc2cc(O)cc(-c3ncc4c(N5CCC[C@@](C)(O)C5)nc(OCC5(CN6CCN(CC7CCC8(CC7)CCN(C(=O)c7ccc(OC)c(N9CCC(=O)NC9=O)c7)CC8)CC6)CC5)nc4c3F)c12` [Example 7, (R)-1-(5-(9-((4-((1-(((7-(8-ethynyl-7-fluoro-3-hydroxynaphthalen-1-yl)-8-fluoro-4-(3-hydroxy-3-methylpiperidin-1-yl)pyrido[4,3-d]pyrimidin-2-yl)oxy)methyl)cyclopropyl)methyl)piperazin-1-yl)methyl)-3-azaspiro[5.5]undecane-3-carbonyl)-2-methoxyphenyl)dihydropyrimidine-2,4(1H,3H)-dione], the IC50 at Human KRAS G12V was at most 0.5 µM. The DC50 in assay [1] (24 h), in assay [2], in assay [3], in assay [4] and in assay [5] (24 h) was at most 0.05 µM each time. For the same compound, the maximal degradation (Dmax) in assay [1] (A-427, 24 h) is 80 to 100%; in assay [2], 80 to 100%; in assay [3] it was 80 to 100%; in assay [4], 80 to 100%; in assay [5] (ASPC1, 24 h) it was 80 to 100%.

Source of the values: patent US20260167622A1, “PAN-KRAS DEGRADING AGENT, AND PREPARATION METHOD THEREFOR AND USE THEREOF” (LEADINGTAC PHARMACEUTICAL (SHAOXING) CO., LTD., priority 2022, published 2026).
